In patent US5137711A, “Paramagnetic DTPA and EDTA alkoxyalkylamide complexes as MRI agents” (Mallickrodt Medical, Inc., priority 1989, dated 1992):

System: ICR mice
Assay: acute intravenous toxicity in ICR mice
Type: in vivo
Description: The acute intravenous toxicity of the compound of Example II was determined as follows: ICR mice, at 1 to 4 per dose level, received single intravenous injections of the test substance via a lateral tail vein at the rate of approximately 1 ml/minute. The test substances were at concentrations chosen to result in dose volumes of 5 to 75 ml/kg body weight. Dosing began at a volume of 10 ml/kg. Dose adjustments up or down were made to closely bracket the estimated LD50 with 4 animals per group (2 males and 2 females). Observations of the mice were recorded at times 0, 0.5, 1,2,4 and 24 hours and once daily thereafter for up to 7 days post injection. On the 7th day post injection, the mice were euthanized, weighed and necropsied. Abnormal tissues were noted. At this time a decision was made as to whether any histopathology was to be performed and whether or not the tissues should be retained. Necropsies were also performed on mice expiring after 24 hours post-injection, except for dead mice found on the weekends The LD50 values, along with 95% CI were calculated using a modified Behrens-Reed-Meunch method. The results for the complex of Example II are reported below:
Sex and Weight Range of Mice: Males(18.0-20.3 g) Females (19.0-21.7 g)

## COCCNC(=O)CN(CCN(CCN(CC(=O)[O-])CC(=O)NCCOC)CC(=O)[O-])CC(=O)[O-].[Gd+3] [Example II, {N,N"-Bis[N-(2-methoxyethyl)-carbamoylmethyl]diethylenetriamine-N,N',N"-triaceto} gadolinium (III)]
7-day post-injection period, i.v.
  Body weight of surviving mice: failed to gain weight
Preliminary tests, mice
  i.v. toxicity (overall, in words): low order of i.v. toxicity
